{
  "source": "patent US20210251994A1",
  "about": "“INCREASING IMMUNE ACTIVITY THROUGH MODULATION OF POSTCELLULAR SIGNALING FACTORS” (FLAGSHIP PIONEERING INNOVATIONS V, INC., priority 2018, published 2021)",
  "key": {"NFKB [1]": {"system": "NFKB", "experiment": "NFKB reporter activity in THP1-Dual monocytes co-cultured with treated Caki-1 cells", "type": "cell-based, human", "settings": "for NFKB signaling/activity in THP1 monocytes: Caki-1 cells treated 24 hours, then co-culture with THP1-Dual cells 24 hours, versus DMSO", "method": "(§1) Caki-1 renal cell carcinoma cells were treated with either control (DMSO) or various doses of Erastin, for 24 hours prior to co-culture with THP1-Dual cells for an additional 24 hours. Erastin was purchased from Selleckchem (Houston, Tex.) and dissolved in DMSO. Subsequently, the THP1 supernatants were assessed for NFKB or IRF reporter activity.\n(§2) Caki-1 cells were acquired from ATCC and THP1-Dual cells acquired from InvivoGen (San Diego, Calif.). Both cell types were cultured in 96-well plates for the duration of the assay. 7,500 Caki-1 cells were plated 24 hours prior to dosing with Erastin, with a final DMSO concentration of 0.5%. 24 hours post-treatment, THP1-Dual cells (25,000 cells/well) were added to the Caki-1 cells. 24 hours later, 30 μl of supernatant was mixed with either 200 μl QuantiBlue (InvivoGen) or 50 μl QuantiLuc and absorbance or luminescence was recorded on a Molecular Devices plate reader.\nas §1, with “RSL3,” for “Erastin,”, “RSL3” for “Erastin”, “Selleckchem” for “Selleckchem (Houston, Tex.)”\nas §2, with “RSL3,” for “Erastin,”, “(InvivoGen, San Diego, Calif.)” for “(InvivoGen)”\nCaki-1 renal carcinoma cells were treated with either control (DMSO) or various doses (e.g. 0.002, 0.005, 0.014, 0.041, 0.123, 0.370, 1.111, 3.333 and 10 μM) of a GPX4 inhibitor (RSL3 or ML162) in the presence or absence of 1 μM Ferrostatin for 24 hours prior to co-culture with THP1-Dual cells for an additional 24 hours. Subsequently, the THP1 supernatant was assessed for NFKB reporter activity. Caki-1 cells were acquired from ATCC and THP1-Dual cells acquired from InvivoGen (San Diego, Calif.). Both cell types were cultured in 96-well plates for the duration of the assay."}, "NFKB [2]": {"system": "NFKB", "experiment": "NFKB reporter activity in THP1-Dual monocytes co-cultured with treated HT1080 cells", "type": "cell-based, human", "settings": "HT1080 cells treated 24 hours, then co-culture with THP1-Dual cells 24 hours; versus DMSO", "method": "as §1, with “HT1080 fibrosarcoma” for “Caki-1 renal cell carcinoma”, “Erastin, piperazine erastin (PE), or imidazole ketoerastin (IKE)” for “Erastin,”, “nuclear factor kappa-light-chain-enhancer of activated B cells (NFKB)” for “NFKB”, “interferon regulatory factor (IRF)” for “IRF”\nHT1080 cells were acquired from ATCC and THP1-Dual cells were acquired from InvivoGen (San Diego, Calif.). THP1-Dual cells are human monocyte cells that induce reporter proteins upon activation of either NFKB or IRF pathways. Both cell types were cultured in 96-well plates for the duration of the assay. HT1080 cells were cultured in DMEM with 10% FBS, and THP1-Dual cells were cultured in RPMI with 10% FBS. 7,500 HT1080 cells were plated 24 hours prior to dosing with Erastin, PE, or IKE, with a final DMSO concentration of 0.5%. 24 hours post-treatment, THP1-Dual cells (25,000 cells/well) were added to the HT1080 cells. 24 hours later, 30 μl of supernatant was mixed with either 200 μl QuantiBlue (InvivoGen, San Diego, Calif.) (for NFKB reporter activity) or 50 μl QuantiLuc (for IRF reporter activity) and absorbance or luminescence was recorded on a Molecular Devices plate reader.\nHT1080 fibrosarcoma cells were treated with various doses of Erastin (e.g. […], 0.16, 0.31, 0.63, 1.25, 2.5, 5, 10 or 20 μM) alone or in combination with a ferroptosis inhibitor (1 μM Ferrostatin-1, 1 μM Liproxstatin-1, 100 μM Trolox, 25 μM β-Mercaptoethanol or 100 μM Deferoxamine) for 24 hours prior to co-culture with THP1-Dual cells for an additional 24 hours. Ferrostatin-1 and Liproxstatin-1 were purchased from Selleckchem (Houston, Tex.) and dissolved in DMSO. Trolox was purchased from Cayman Chemical Company Inc and resuspended in DMSO. […] Subsequently, the THP1 supernatant was assessed for NFKB activity. […]"}, "[3]": {"system": "Caki-1 renal cell carcinoma cells", "experiment": "Viability of Caki-1 renal cell carcinoma cells after treatment", "type": "cell-based", "settings": "for viability of Caki-1 cells: various doses, 24 hours treatment", "protocol": "Caki-1 renal carcinoma cells were treated with either control (DMSO) or various doses (e.g. 0.002, 0.005, 0.014, 0.041, 0.123, 0.370, 1.111, 3.333 and 10 μM) of a GPX4 inhibitor (RSL3 or ML162) in the presence or absence of 1 μM Ferrostatin for 24 hours prior to co-culture with THP1-Dual cells for an additional 24 hours. […] Caki-1 cells were acquired from ATCC and THP1-Dual cells acquired from InvivoGen (San Diego, Calif.). Both cell types were cultured in 96-well plates for the duration of the assay."}, "[4]": {"system": "HT1080 fibrosarcoma cells", "experiment": "Viability of HT1080 fibrosarcoma cells after treatment", "type": "cell-based", "settings": "various doses, 24 hours treatment"}, "NFKB [5]": {"system": "NFKB", "experiment": "NFKB reporter activity in THP1-Dual monocytes co-cultured with treated PANC1 cells", "type": "cell-based, human", "settings": "PANC1 cells treated 24 hours, then co-culture with THP1-Dual cells 24 hours; versus DMSO", "method": "as §1, with “PANC1 pancreatic cancer” for “Caki-1 renal cell carcinoma”\nas §2, with “PANC1 cells were” for “Caki-1 cells were”, “THP1-Dual cells were acquired from” for “THP1-Dual cells acquired from”, “assay. 7,500 PANC-1 cells were” for “assay. 7,500 Caki-1 cells were”, “to the PANC-1 cells. 24” for “to the Caki-1 cells. 24”, “μl QuantiBlue (InvivoGen, San Diego, Calif.) or 50” for “μl QuantiBlue (InvivoGen) or 50”"}, "[6]": {"system": "PANC1 pancreatic cancer cells", "experiment": "Viability of PANC1 pancreatic cancer cells after treatment", "type": "cell-based", "settings": "various doses, 24 hours treatment"}, "[7]": {"system": "cells overexpressing oncogenic HRAS", "settings": "engineered human fibroblast cell lines; Dolma et al., 2003; cited from earlier work"}, "NFKB [8]": {"system": "NFKB", "experiment": "NFKB reporter activity in THP1-Dual monocytes co-cultured with treated A20 cells", "type": "cell-based, human", "settings": "for NFKB signaling/activity in THP1 monocytes: A20 cells treated 24 hours, then co-culture with THP1-Dual cells 24 hours, versus DMSO", "method": "as §1, with “A20 B-cell leukemia” for “Caki-1 renal cell carcinoma”, “RSL3,” for “Erastin,”, “RSL3” for “Erastin”\nas §2, with “A20” for “Caki-1”, “50,000 A20” for “7,500 Caki-1”, “RSL3,” for “Erastin,”, “(InvivoGen, San Diego, Calif.)” for “(InvivoGen)”\nA20 lymphoma cells were treated with various doses (e.g. 0.002, 0.005, 0.014, 0.041, 0.123, 0.370, 1.111, 3.333 and 10 μM) of a GPX4 inhibitor (RSL3, ML162 or ML210) in the presence or absence of 1 μM Ferrostatin-1 for 24 hours. ML162 was purchased from Cayman Chemical Company Inc and resuspended in DMSO. ML210 was purchased from Sigma-Aldrich and resuspended in DMSO. A20 lymphoma cells were also treated with DMSO as a negative control. After treatment with DMSO or a GPX4 inhibitor for 24 hours, the A20 lymphoma cells were co-cultured with THP1-Dual cells for an additional 24 hours. Subsequently, the THP1 supernatant was assessed for NFKB reporter activity. A20 cells were acquired from ATCC and THP1-Dual cells were acquired from InvivoGen (San Diego, Calif.). Both cell types were cultured in 96-well plates for the duration of the assay."}, "A20 lymphoma cells": {"system": "A20 lymphoma cells", "experiment": "Viability of A20 B-cell leukemia / lymphoma cells after treatment", "type": "cell-based", "settings": "for viability of A20 cells: various doses, 24 hours treatment"}},
  "note": "“Also recorded” adds a separate entry of the source.",
  "data": [
    {"compound": "CCOc1ccccc1-n1c(C(C)N2CCN(C(=O)COc3ccc(Cl)cc3)CC2)nc2ccccc2c1=O", "note": "(stereo not drawn) [Erastin, erastin]", "values": [
      {"measurement": "NFKB signaling/activity in THP1 monocytes", "setting": "NFKB [1]", "result": "elicited NFKB signaling"},
      {"measurement": "NFKB signaling/activity in THP1 monocytes", "setting": "NFKB [2]", "result": "elicited NFKB signaling; also recorded: increased NFKB activity in THP1 cells in a dose dependent manner"},
      {"measurement": "viability of Caki-1 cells", "setting": "[3]", "result": "negatively affected the viability"},
      {"measurement": "viability of HT1080 cells", "setting": "[4]", "result": "negatively affected the viability; also recorded: decreased viability of the cells in a dose dependent manner"},
      {"measurement": "NFKB signaling in THP1 monocytes", "setting": "NFKB [5]", "result": "elicited NFKB signaling"},
      {"measurement": "viability of PANC1 cells", "setting": "[6]", "result": "negatively affected the viability"},
      {"measurement": "lethality in cells overexpressing oncogenic HRAS", "setting": "[7]", "result": "induce preferential lethality"}
    ]},
    {"compound": "CCOC(=O)c1ccc(NC2CCCCC2)c(N)c1", "note": "[Ferrostatin-1]", "values": [
      {"measurement": "effect on GPX4 inhibitor-increased NFKB activity in THP1 cells", "setting": "NFKB [1]; Caki-1 cells, 1 μM Ferrostatin-1 together with RSL3 or ML162, then THP1-Dual co-culture 24 hours", "result": "attenuated"},
      {"measurement": "effect on GPX4 inhibitor-decreased viability of Caki-1 renal carcinoma cells", "setting": "[3]; 1 μM Ferrostatin-1 together with RSL3 or ML162, 24 hours", "result": "attenuated"},
      {"measurement": "effect on GPX4 inhibitor-increased NFKB activity in THP1 cells", "setting": "NFKB [8]; A20 cells, 1 μM Ferrostatin-1 together with RSL3, ML162 or ML210, then THP1-Dual co-culture 24 hours", "result": "attenuated"},
      {"measurement": "effect on GPX4 inhibitor-decreased viability of A20 lymphoma cells", "setting": "A20 lymphoma cells; 1 μM Ferrostatin-1 together with RSL3, ML162 or ML210, 24 hours", "result": "attenuated"}
    ]},
    {"compound": "CC(C)Oc1ccc(C(=O)Cn2ccnc2)cc1-n1c(CN2CCN(C(=O)COc3ccc(Cl)cc3)CC2)nc2ccccc2c1=O", "note": "[IKE, imidazole ketoerastin]", "values": [
      {"measurement": "NFKB signaling/activity in THP1 monocytes", "setting": "NFKB [2]", "result": "elicited NFKB signaling"},
      {"measurement": "viability of HT1080 cells", "setting": "[4]", "result": "negatively affected the viability"}
    ]},
    {"compound": "COc1ccc(N(C(=O)CCl)C(C(=O)NCCc2ccccc2)c2cccs2)cc1Cl", "note": "(stereo not drawn) [ML162]", "values": [
      {"measurement": "NFKB signaling/activity in THP1 monocytes", "setting": "NFKB [1]", "result": "increased NFKB activity in THP1 cells in a dose dependent manner"},
      {"measurement": "viability of Caki-1 cells", "setting": "[3]", "result": "decreased viability of the cells in a dose dependent manner"},
      {"measurement": "NFKB signaling/activity in THP1 monocytes", "setting": "NFKB [8]", "result": "increased NFKB activity in THP1 cells in a dose dependent manner"},
      {"measurement": "viability of A20 cells", "setting": "A20 lymphoma cells", "result": "decreased viability of the cells in a dose dependent manner"}
    ]},
    {"compound": "Cc1onc(C(=O)N2CCN(C(c3ccc(Cl)cc3)c3ccc(Cl)cc3)CC2)c1[N+](=O)[O-]", "note": "[ML210]", "values": [
      {"measurement": "NFKB signaling/activity in THP1 monocytes", "setting": "NFKB [8]", "result": "increased NFKB activity in THP1 cells in a dose dependent manner"},
      {"measurement": "viability of A20 cells", "setting": "A20 lymphoma cells", "result": "decreased viability of the cells in a dose dependent manner"}
    ]},
    {"compound": "CC(C)Oc1ccc(CN2CCNCC2)cc1-n1c(CN2CCN(C(=O)COc3ccc(Cl)cc3)CC2)nc2ccccc2c1=O", "note": "[PE, piperazine erastin]", "values": [
      {"measurement": "NFKB signaling/activity in THP1 monocytes", "setting": "NFKB [2]", "result": "elicited NFKB signaling"},
      {"measurement": "viability of HT1080 cells", "setting": "[4]", "result": "negatively affected the viability"}
    ]}
  ]
}
